# Data from patent US7795240B1, “Nonreducing beta-glucan derivative” (Asahi Kasei Chemicals Corporation, priority 2003, dated 2010).
# Columns and labels:
# Assay type in all cases: physicochemical
# [1] = disintegration time of molded cylindrical product (Japanese Pharmacopeia disintegration test); details: 37° C., pure water
# Description: (§1) The hardness of the molded cylindrical product thus obtained was measured by a Schleuniger hardness tester type 6D (Trademark, manufactured by FREUND Corporation). More specifically, a load pressure was applied to the molded cylindrical product or a tablet in the direction of the diameter to break it. The weight at the moment was measured. The hardness was represented by an average value of 10 samples. Furthermore, the disintegration time of the molded cylindrical product was determined in accordance with a general test method, a disintegration test method for tablets specified in the Japanese Pharmacopeia, 14th revision, by use of a disintegration tester (Toyama Sangyo Co., Ltd., Trade name: NT-40HS type with a disk), at 37° C. in pure water. The disintegration time was represented by an average of 6 tablets
# [2] = hardness of molded cylindrical product (Schleuniger hardness tester type 6D)
# Description: as §1
# [3] = storage stability test of an equivalent mixture with L-arginine (degree of whiteness, coloration); details: for appearance (color) after storage / decrease ratio in degree of whiteness: 40° C., 2 weeks; for appearance (color) after storage / decrease ratio in degree of whiteness / degree of whiteness after the test: 75% RH, airtight; for degree of whiteness after the test: after 2 weeks at 40° C.; for degree of whiteness at the onset: at onset/initiation of the storage test
# Description: In a β-glucan derivative according to the present invention, a non-reducing end needs not to be bound to all reducing ends. A non-reducing end may be bound to reducing ends to the extent that an active ingredient such as a medicament or the like having an amino group is stably present. The conversion rate of a reducing end of the β-glucan into a non-reducing end is preferably 0.1 mol % or more. Whether an active ingredient is present in a stable state can be readily checked by an observation based on degree of coloration in a storage stability test in a condition that is performed by mixing an active ingredient and a β-glucan derivative in equivalent amounts and stored the mixture at 40° C. under 75%. Since it has a reducing end, β-glucan is known to initiate the Maillard reaction with an active ingredient having a terminal amino group to form an amino-carbonyl bond and produce color. However, a β-glucan derivative according to the present invention has an advantageous effect in that since the reducing end is inactivated by a non-reducing sugar, no coloring reaction takes place. The effect of the present invention is particularly effective for an active ingredient having a primary amine.
# Whether fructose was bound was confirmed based on an increase of a peak in a mass spectrum and a storage stability test of an equivalent mixture of the obtained transglucosylated product and L-arginine contained at 40° C. and 75% RH, airtight for 2 weeks. A decrease ratio in degree of whiteness was 2% (it was 99% at the onset and 97% after the test).
Substance,disintegration time of the molded cylindrical product ([1]; compression pressure 35 kN),hardness of the molded cylindrical product ([2]; compression pressure 35 kN),appearance (color) after storage [3],decrease ratio in degree of whiteness [3],degree of whiteness after the test [3],degree of whiteness at the onset [3],"disintegration time of the molded cylindrical product ([1]; compressed at 25 kN, with disk, average of 6)","hardness of the molded cylindrical product ([2]; compressed at 25 kN, φ8 mm, average of 10 samples)"
transglucosylated cellobiose [Comparative Example 2],300 s,80 N,White color in appearance was maintained,3%,96%,99%,–,–
transglucosylated cellotriose [Example 1],–,–,White color in appearance was maintained,2%,97%,99%,58 s,70 N
